Results as given in patent publication US8247211B2, “Glycopeptide antibiotics” (American Cyanamid Company, priority 2001, dated 2012).

Experiments:
Experiment in all cases: In vitro antibacterial evaluation: minimum inhibitory concentration (MIC), broth dilution method
Type in all cases: cell-based
[1] = system: Escherichia coli
In short: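 NCCLS M7-A2 broth dilution; Muller-Hinton II […]; 5×10^5 CFU/mL; 64-0.06 μg/mL. MIC = lowest concentration with no growth.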

[2] = system: Streptococcus sp.; details: 18 hours at 35° C.
In short: (§1)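 Susceptibility determined by NCCLS-recommended broth dilution (M7-A2), Muller-Hinton II […]. Concentration span 64-0.06 μg/mL, inoculum 5×10^5 CFU/mL. Isolates include strains resistant to methicillin, penicillin and/or vancomycin.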

[3] = system: Staphylococcus sp.; details: 18 hours at 35° C.
In short: as §1

[4] = system: Enterococcus sp.
In short: as §1

[5] = system: Escherichia coli; remark: listed apart in the source
[6] = Streptococcus agalactiae (GC 4564)
[7] = Streptococcus pneumoniae (GC 4565)
[8] = Streptococcus pyogenes (ID-3187)
[9] = Staphylococcus aureus (ATCC 29213)
[10] = Staphylococcus aureus (GC 1131)
[11] = Staphylococcus aureus (GC 4541)
[12] = Staphylococcus aureus (GC 4542)
[13] = Staphylococcus aureus (GC 4544)
[14] = Staphylococcus aureus (GC 4545)
[15] = broth dilution, strain ATCC 29213
[16] = Enterococcus faecalis (ATCC 29212)
[17] = Enterococcus faecalis (GC 2242), 18 hours at 35° C.
[18] = Enterococcus faecalis (GC 4552), 18 hours at 35° C.
[19] = Enterococcus faecalis (GC 4553)
[20] = Enterococcus faecalis (GC 4554)
[21] = broth dilution, 18 hours at 35° C., strain ATCC 29212
[22] = broth dilution, 18 hours at 35° C., strain GC 2242
[23] = broth dilution, 18 hours at 35° C., strain GC 2243
[24] = broth dilution, 18 hours at 35° C., strain GC 4552
[25] = broth dilution, 18 hours at 35° C., strain GC 4553
[26] = broth dilution, 18 hours at 35° C., strain GC 4554
[27] = broth dilution, 18 hours at 35° C., strain GC 4556
[28] = broth dilution, 18 hours at 35° C., strain GC 4557
[29] = broth dilution, 18 hours at 35° C., strain GC 4558

α-O-[(Cyclohexylamino)carbonyl]-cyclo[glycyl-β-methylphenylalanyl-O-(4-O-hexopyranosylhexopyranosyl)tyrosyl-3-(2-iminoimidazolidin-4-yl)seryl-3-(3-hexopyranosyl-2-iminoimidazolidin-4-yl)serylseryl] [Example 256]
MIC Escherichia coli (GC 4559) [1]: >64 µg/mL | MIC Escherichia coli (GC 4560) [1]: 32 µg/mL | MIC Streptococcus agalactiae (GC 4564) [2, 6]: >64 µg/mL | MIC Streptococcus pneumoniae (GC 4565) [2, 7]: >64 µg/mL | MIC Streptococcus pyogenes (ID-3187) [2, 8]: 64 µg/mL | MIC Streptococcus agalactiae (GC 4564) ([2]; broth dilution, strain GC 4564): >64 µg/mL | MIC Streptococcus pneumoniae (GC 4565) ([2]; broth dilution, strain GC 4565): >64 µg/mL | MIC Streptococcus pyogenes (ID-3187) ([2]; broth dilution, strain ID-3187): 64 µg/mL | MIC Coagulase Negative Staphylococcus (GC 4547) [3]: >64 µg/mL | MIC Coagulase Negative Staphylococcus (GC 4548) [3]: >64 µg/mL | MIC Coagulase Negative Staphylococcus (GC 4549) [3]: >64 µg/mL | MIC Coagulase Negative Staphylococcus (GC 4551) [3]: >64 µg/mL | MIC Coagulase Negative Staphylococcus (ID-3941) [3]: >64 µg/mL | MIC Staphylococcus aureus (ATCC 29213) [3, 9]: >64 µg/mL | MIC Staphylococcus aureus (GC 1131) [3, 10]: >64 µg/mL | MIC Staphylococcus aureus (GC 4541) [3, 11]: >64 µg/mL | MIC Staphylococcus aureus (GC 4542) [3, 12]: >64 µg/mL | MIC Staphylococcus aureus (GC 4544) [3, 13]: >64 µg/mL | MIC Staphylococcus aureus (GC 4545) [3, 14]: >64 µg/mL | MIC Staphylococcus aureus-SMITH (GC 4543) [3]: >64 µg/mL | MIC Staphylococcus haemolyticus (GC 4546) [3]: >64 µg/mL | MIC Staphylococcus aureus (ATCC 29213) [3, 15]: >64 µg/mL | MIC Staphylococcus aureus (GC 1131) ([3]; broth dilution, strain GC 1131): >64 µg/mL | MIC Staphylococcus aureus (GC 4541) ([3]; broth dilution, strain GC 4541): >64 µg/mL | MIC Staphylococcus aureus (GC 4542) ([3]; broth dilution, strain GC 4542): >64 µg/mL | MIC Staphylococcus aureus (GC 4544) ([3]; broth dilution, strain GC 4544): >64 µg/mL | MIC Staphylococcus aureus (GC 4545) ([3]; broth dilution, strain GC 4545): >64 µg/mL | MIC Enterococcus avium (GC 4558) ([4]; Enterococcus avium (GC 4558)): >64 µg/mL | MIC Enterococcus faecalis (ATCC 29212) [4, 16]: >64 µg/mL | MIC Enterococcus faecalis (GC 2242) [4, 17]: >64 µg/mL | MIC Enterococcus faecalis (GC 4552) [4, 18]: >64 µg/mL | MIC Enterococcus faecalis (GC 4553) [4, 19]: >64 µg/mL | MIC Enterococcus faecalis (GC 4554) [4, 20]: >64 µg/mL | MIC Enterococcus faecium (GC 2243) ([4]; Enterococcus faecium (GC 2243)): >64 µg/mL | MIC Enterococcus faecium (GC 4556) ([4]; Enterococcus faecium (GC 4556)): >64 µg/mL | MIC Enterococcus faecium (GC 4557) ([4]; Enterococcus faecium (GC 4557)): 64 µg/mL | MIC Enterococcus faecalis (ATCC 29212) [4, 21]: >64 µg/mL | MIC Enterococcus faecalis (GC 2242) [4, 22]: >64 µg/mL | MIC Enterococcus faecium (GC 2243) [4, 23]: >64 µg/mL | MIC Enterococcus faecalis (GC 4552) [4, 24]: >64 µg/mL | MIC Enterococcus faecalis (GC 4553) [4, 25]: >64 µg/mL | MIC Enterococcus faecalis (GC 4554) [4, 26]: >64 µg/mL | MIC Enterococcus faecium (GC 4556) [4, 27]: >64 µg/mL | MIC Enterococcus faecium (GC 4557) [4, 28]: 64 µg/mL | MIC Enterococcus avium (GC 4558) [4, 29]: >64 µg/mL | MIC Escherichia coli (ATCC 25922) [5]: >64 µg/mL

β-O-[(Cyclohexylamino)carbonyl]-cyclo[glycyl-β-methylphenylalanyl-O-(4-O-hexonyranosylhexopyranosyl)tyrosyl-3-(2-iminoimidazolidin-4-yl)seryl-3-(3-hexopyranosyl-2-iminoimidazolidin-4-yl)serylseryl] [Example 256a]
MIC Escherichia coli (GC 4559) [1]: >64 µg/mL | MIC Escherichia coli (GC 4560) [1]: 8 µg/mL | MIC Streptococcus agalactiae (GC 4564) [2, 6]: >64 µg/mL | MIC Streptococcus pneumoniae (GC 4565) [2, 7]: 64 µg/mL | MIC Streptococcus pyogenes (ID-3187) [2, 8]: 64 µg/mL | MIC Streptococcus agalactiae (GC 4564) ([2]; broth dilution, strain GC 4564): >64 µg/mL | MIC Streptococcus pneumoniae (GC 4565) ([2]; broth dilution, strain GC 4565): 64 µg/mL | MIC Streptococcus pyogenes (ID-3187) ([2]; broth dilution, strain ID-3187): 64 µg/mL | MIC Coagulase Negative Staphylococcus (GC 4547) [3]: >64 µg/mL | MIC Coagulase Negative Staphylococcus (GC 4548) [3]: >64 µg/mL | MIC Coagulase Negative Staphylococcus (GC 4549) [3]: >64 µg/mL | MIC Coagulase Negative Staphylococcus (GC 4551) [3]: >64 µg/mL | MIC Coagulase Negative Staphylococcus (ID-3941) [3]: 64 µg/mL | MIC Staphylococcus aureus (ATCC 29213) [3, 9]: >64 µg/mL | MIC Staphylococcus aureus (GC 1131) [3, 10]: >64 µg/mL | MIC Staphylococcus aureus (GC 4541) [3, 11]: >64 µg/mL | MIC Staphylococcus aureus (GC 4542) [3, 12]: >64 µg/mL | MIC Staphylococcus aureus (GC 4544) [3, 13]: >64 µg/mL | MIC Staphylococcus aureus (GC 4545) [3, 14]: >64 µg/mL | MIC Staphylococcus aureus-SMITH (GC 4543) [3]: >64 µg/mL | MIC Staphylococcus haemolyticus (GC 4546) [3]: >64 µg/mL | MIC Staphylococcus aureus (ATCC 29213) [3, 15]: >64 µg/mL | MIC Staphylococcus aureus (GC 1131) ([3]; broth dilution, strain GC 1131): >64 µg/mL | MIC Staphylococcus aureus (GC 4541) ([3]; broth dilution, strain GC 4541): >64 µg/mL | MIC Staphylococcus aureus (GC 4542) ([3]; broth dilution, strain GC 4542): >64 µg/mL | MIC Staphylococcus aureus (GC 4544) ([3]; broth dilution, strain GC 4544): >64 µg/mL | MIC Staphylococcus aureus (GC 4545) ([3]; broth dilution, strain GC 4545): >64 µg/mL | MIC Enterococcus avium (GC 4558) ([4]; Enterococcus avium (GC 4558)): >64 µg/mL | MIC Enterococcus faecalis (ATCC 29212) [4, 16]: >64 µg/mL | MIC Enterococcus faecalis (GC 2242) [4, 17]: >64 µg/mL | MIC Enterococcus faecalis (GC 4552) [4, 18]: >64 µg/mL | MIC Enterococcus faecalis (GC 4553) [4, 19]: >64 µg/mL | MIC Enterococcus faecalis (GC 4554) [4, 20]: >64 µg/mL | MIC Enterococcus faecium (GC 2243) ([4]; Enterococcus faecium (GC 2243)): >64 µg/mL | MIC Enterococcus faecium (GC 4556) ([4]; Enterococcus faecium (GC 4556)): >64 µg/mL | MIC Enterococcus faecium (GC 4557) ([4]; Enterococcus faecium (GC 4557)): 32 µg/mL | MIC Enterococcus faecalis (ATCC 29212) [4, 21]: >64 µg/mL | MIC Enterococcus faecalis (GC 2242) [4, 22]: >64 µg/mL | MIC Enterococcus faecium (GC 2243) [4, 23]: >64 µg/mL | MIC Enterococcus faecalis (GC 4552) [4, 24]: >64 µg/mL | MIC Enterococcus faecalis (GC 4553) [4, 25]: >64 µg/mL | MIC Enterococcus faecalis (GC 4554) [4, 26]: >64 µg/mL | MIC Enterococcus faecium (GC 4556) [4, 27]: >64 µg/mL | MIC Enterococcus faecium (GC 4557) [4, 28]: 32 µg/mL | MIC Enterococcus avium (GC 4558) [4, 29]: >64 µg/mL | MIC Escherichia coli (ATCC 25922) [5]: >64 µg/mL
